Measured values as given in patent publication US20240262878A1, “PHOTOACTIVATABLE GASDERMIN PROTEINS” (THE BOARD OF TRUSTEES OF THE UNIVERSITY OF ILLINOIS, priority 2021, published 2024).
Where a chain is given by its changes, count along the chain named. Names and notes keep the numbering of the source. “Also recorded” adds a separate entry of the source. Values belong to the molecule of their own block, whether it stands above or below them.

How the values were obtained:
GSDMD pores = biological target: T1, GSDMD pores (Homo sapiens, UniProt P57764); assay: Free-standing planar lipid bilayer electrophysiology of reconstituted GSDMD pores; format: biochemical; settings: for single pore activity / pore dynamics profile: lipid in POPE/POPC bilayer; for time to observe GSDMD protein-membrane interaction, in words: lipid in bilayer compared to baseline or PIP2 bilayer
T1 construct: His-SUMO (N, cleaved yes); made in house; host or cells: E. coli BL21
T1 sequence (P57764 1-275 limits assumed): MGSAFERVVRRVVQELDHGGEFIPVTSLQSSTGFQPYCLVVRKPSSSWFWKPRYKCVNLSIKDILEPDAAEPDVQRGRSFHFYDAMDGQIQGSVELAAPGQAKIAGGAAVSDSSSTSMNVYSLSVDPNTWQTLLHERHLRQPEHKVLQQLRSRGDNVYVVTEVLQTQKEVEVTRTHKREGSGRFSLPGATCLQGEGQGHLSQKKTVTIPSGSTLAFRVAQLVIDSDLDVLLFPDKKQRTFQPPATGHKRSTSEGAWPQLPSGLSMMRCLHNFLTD
Procedure: Protein Purification. Plasmid encoding the full length human GSDMD with a N-terminal His-SUMO tag was transformed into E. coli BL21 strain. The cultures were grown at 37° C. until OD600 0.8, and protein expression was induced with 0.2 mM isopropyl β-D-1-thiogalactopyranoside (IPTG) overnight at 20° C. The cells were harvested by centrifugation and the pellet was resuspended in 20 mM Tris buffer, pH 7.5, 50 mM NaCl, 5 mM imidazole, 20 mM MgCl2, 10 mM KCl, 0.5 mM TCEP, 0.1 mM protease inhibitor, and DNase I. After resuspension, cells were disrupted by high-pressure and centrifuged at 30,000 g at 4° C. for 1 hour. The supernatant was incubated for 2 hours at room temperature with pre-equilibrated Ni-NTA affinity resin (Thermo Scientific) and then passed through a column for gravity flow purification. The column was washed with 20 column volumes of resuspension buffer, and the fusion protein was eluted with three column volumes of the same buffer with 250 mM imidazole. SUMO-tag cleavage was achieved by addition of ULP1 protease to the solution and subsequent dialysis overnight at 4° C. against 20 mM Tris buffer, pH 7.5, 50 mM NaCl, 0.5 mM TCEP. GSDMD was eluted from a second round of purification through pre-equilibrated Ni-NTA affinity resin. The protein was further purified by HI-TRAP® Q ion-exchange resin and a SUPERDEX® 75 gel filtration column (GE Healthcare) pre-equilibrated with 20 mM Tris buffer, pH 7.5, 50 mM NaCl, 0.5 mM TCEP. The purified protein was concentrated to 20 mg/ml and frozen at −80° C.
Free-Standing Lipid Bilayer Formation and Electrophysiology. For the lipid bilayer, a bilayer chamber with a polystyrene cuvette was used. In addition, the folding method, which is based on Langmuir-Blodgett film formation (Kroemer et al. (2009) Cell Death Differ. 16:3-11; Weavers et al. (2016) Cell 165:1658-1671) was employed. Monolayers that were spread in the air-water interface were faced at the chamber hole (Bergsbaken & Fink (2009) Nat. Rev. Microbiol. 7:99-109; Mulvihill et al. (2018) EMBO J. 37 (14): e98321). In brief, a shallow trough made of polystyrene was filled with recording solution, and the surface was separated into two parts by one of the cuvette walls. Bilayers were formed by monolayers of 1:3 1-palmitoyl-2-oleoylphosphatidylethanolamine (POPE)/1-palmitoyl-2-oleoylphosphatidylcholine (POPC) (Avanti-lipids) in pentane; where appropriate, phosphoinositides of the indicated headgroup were introduced with di-oleoyl (18:1) fatty acid chains at 10% relative concentration. A small amount of phospholipid, dispersed in pentane solution, was dropped on one of the water surfaces and as pentane evaporated, the lipid molecules remained at the air-water interface. The movements of the lipid molecules became less vigorous, and eventually the lipid molecules packed together to form a monolayer. For the formation of the planar lipid bilayer by the folding method, a monolayer was formed at the air-water interface in each compartment. Upon raising the recording solution level by adding more solution, the monolayer ran up on the cuvette surface and passed through the hole, where the two monolayers from both sides encountered each other and formed a bilayer. The membrane formed by this method has been referred to as a “solvent-free” membrane. The advantage of this method over other methods, like the painting method, is the capacity to form an asymmetrical membrane in which the lipid composition of either leaflet is arbitrarily defined (Kayagaki et al. (2015) Nature 526: 666-671). Once formed, the membrane retains this asymmetry for a long time because the flip-flop or exchange of the lipid molecules between both leaflets of the membrane is very slow.
For incorporation of the GSDMD into the lipid bilayer, 2 μM of the purified GSDMD protein was added to the cis side chamber along with 2 μM of caspase 1. The specific membrane capacitance of the membrane formed by the folding method was 0.6-0.8 μF/cm^2. […]

Hela cells = assay: Optogenetic activation of PhoDer, membrane-targeted jRCaMP1b calcium flare imaging and fluctuation analysis; format: cell-based; settings: PhoDer mutants in live Hela cells vs PhoDer
Procedure: Cloning. Cloning and subcloning were performed using the DH5a strain of E. coli. All mammalian constructs were cloned into the pcDNA3.0 vector with a modified multiple cloning site. Plasmids were generated as follows. Gasdermin D gene was obtained from Addgene. A diffusible optogenetic GSDMD, referred to herein as “PhoDer” and set forth in SEQ ID NO: 33, was constructed according to the reported domains structure by ligating three fragments into the pcDNA3.0 vector in one reaction via Gibson Assembly (New England BioLabs). For each fragment, PCR was specifically designed to create appropriate complementation. The jRCaMP1b gene, encoding a sensitive red protein calcium indicator, was obtained from Addgene. Membrane targeted calcium indicator jRCaMP1b was constructed by ligating a PCR fragment of the calcium indicator into the restriction enzyme sites BamHI and EcoRI in a modified pcDNA3.0 vector carrying a 5′ fragment encoding the N-terminal Lyn kinase localization sequence.
Cell Culture. HeLa and RAW264.7 cells were maintained in Dulbecco's Modified Eagle Medium (DMEM) medium supplemented with 10% fetal bovine serum (FBS) and 1% penicillin and streptomycin. Cells were transfected at 50%-70% confluency using LIPOFECTAMINE® 2000 transfection reagent and incubated for 24 hours before imaging. Cells were never serum-starved. To examine endogenous inflammatory activation, RAW264.7 cells were treated with 100 ng/μL lipopolysaccharide (LPS, Invivogen) at the beginning of each experiment. Pretreatment to bias membrane composition by phosphatidylinositol 4,5-bisphosphate (PIP2) modifying enzymes was performed by incubating Hela cells in Hanks' Balanced Salt Solution (HBSS) buffer with inhibitors at 37° C. for 10 minutes to prior imaging at the following concentrations: for phosphoinositide 3-kinase (PI3K), cells were treated 10 μM wortmannin (Tocris); and for phospholipase C (PLC), cells were treated with 10 μM U73122 (Tocris). Cells were removed from the incubator and allowed to come to thermal equilibrium before being imaged in HBSS buffer at room temperature.
Fluorescence Imaging, Optogenetic Activation, and Post-Processing. All epifluorescence imaging was performed on a customized Nikon Ti2-E microscope equipped with individual control over excitation (EX) and emission (EM) filters, a fast LED light source (Lumencor) with fluid-cooled EMCCD (Andor), motorized stage, and examined under a 40× or 100× oil immersion objective under live focus tracking. For RFP, excitation (EX) and emission (EM) filter combinations (maxima/bandwidth in nm) are indicated. Cells were imaged at 12-15 second intervals. Emission intensities of individual cells were background-subtracted before normalization to zero time point, when optogenetic activation began. In the optical setup, optogenetic activation of PhoDer was performed using an EX filter at 440/20 nm for 20-30 ms across whole fields of view. This replicated the progression of endogenous activation of GSDMD observed in LPS-stimulated RAW264.7 cells. […] Where applicable, inhibitors were treated at the indicated concentration for 15 minutes prior to imaging.
Fluctuation Analysis and Quantification. To automate the objective isolation and quantitation of calcium flares, a post-processing algorithm was developed based on principles and normalization scheme detailed in work on photochromic stochastic optical fluctuation imaging (pcSOFI) (Dedecker et al. (2012) Proc. Natl. Acad. Sci. USA 109: 10909-10914). Briefly, fluctuation caused by the flares generate high autocorrelation signals in time-averaged series and yield high contrast at locales of the greatest ion flux. To truly reflect the local flux change, it is then normalized to remove dependence on the number of biosensors reporting at the given location using a scheme detailed previously (Mo et al. (2017) Nat. Methods 14 (4): 427-434). […]

[1] = lipid at 10% in POPE/POPC bilayer
[2] = lipid at 10% in POPE/POPC bilayer vs baseline

single pore activity / pore dynamics profile (GSDMD pores): no single pore activity was detected
Molecule: diacylglycerol [DAG]

mean current of pores (GSDMD pores; [1]): 20 pA | time to observe protein-membrane interaction (GSDMD pores; [1]): 2.4 ± 0.5 min | effect on open probability of pores (GSDMD pores; [2]): did not affect the open probability | increase in open/close events (GSDMD pores; [2]): 57 fold | time to observe GSDMD protein-membrane interaction, in words (GSDMD pores): significantly shortened
Molecule: phosphatidylinositol 4,5-bisphosphate [PIP2]
dwell time (open duration) of pores (GSDMD pores; [2]): similarly distributed; also recorded: similar

Molecule: cardiolipin [cardiolipin (CL)]
single pore activity / pore dynamics profile (GSDMD pores): supported a pore dynamics profile similar to that of PIP2

mean current of pores (GSDMD pores; [1]): 20.5 pA | time to observe GSDMD protein-membrane interaction, in words (GSDMD pores): remained as rapid as with PIP2 | time to observe GSDMD protein-membrane interaction, in words (GSDMD pores; listed as PI(3,4,5)P3 (PIP3)): significantly shortened
Molecule: phosphatidylinositol triphosphate [PIP3]
dwell time (open duration) of pores (GSDMD pores; [2]): significantly shorter-lived; also recorded: apparently short dwell time | single pore activity / pore dynamics profile (GSDMD pores): kept GSDMD pores predominantly in the open state

B1: m1: PhoDer mutant K51Q/R53Q/K55Q (SEQ ID NO:34) (protein)
chain: MGSAFERVVRRVVQELDHGGEFIPVTSLQSSTGFQPYCLVVRKPSSSWFWQPQYQCVNLSIKDILEPDAAEPDVQRGRSFHFYDAMDGQIQGSVELAAPGQAKIAGGAAVSDSSSTSMNVYSLSVDPNTWQTLLHERHLRQPEHKVLQQLRSRGDNVYVVTEVLQTQKEVEVTRTHKREGSGRFSLPGATCLQGEGQGHLSQKKTVTIPSGSTLAFRVAQLVIDSDLDVLLFPDKKQRTFQPPATGHKRSTSEGAWPQLPSGLSMMRCLHNGGGSVIPDYFKQSFPEGYSWERSMTYEDGGICIATNDITMEGDSFINKIHFKGTNFPPNGPVMQKRTVGWEASTEKMYERDGVLKGDVKMKLLLKGGGHYRCDYRTTYKVKQKPVKLPDYHFVDHRIEILSHDKDYNKVKLYEHAVARNSTDSMDELYKGGSGGMVSKGEETITSVIKPDMKNKLRMEGNVNGHAFVIEGEGSGKPFEGIQTIDLEVKEGAPLPFAYDILTTAFHYGNRVFTKYPRGGGVPAEGAFTEDFQGLRAEVETISKELELLDRELCQLLLEGLEGVLRDQLALRALEEALEQGQSLGPVEPLDGPAGAVLECLVLSSGMLVPELAIPVVYLLGALTMLSETQHKLLAEALESQTLLGPLELVGSLLEQSAPWQERSTMSLPPGLLGNSWGEGAPAWVLLDECGLELGEDTPHVCWEPQAQGRMCALYASLALLSGLSQEPH
pore opening/closing dynamics (automated flare quantification) (Hela cells): significantly reduced pore opening/closing dynamics; also recorded: significant changes in pore activity

B2: m4: PhoDer mutant R42E/K43E (SEQ ID NO:37) (protein)
chain: B1 chain with R42E, K43E, Q51K, Q53R, Q55K
pore opening/closing dynamics (automated flare quantification) (Hela cells): significantly reduced pore opening/closing dynamics

B3: m6: PhoDer mutant R42E/K43E/K51E/R53E/K55E (SEQ ID NO: 39) (protein)
chain: B1 chain with R42E, K43E, Q51E, Q53E, Q55E
pore opening/closing dynamics (automated flare quantification) (Hela cells): significantly reduced pore opening/closing dynamics

B4: m2: PhoDer mutant K51E/R53E/K55E (SEQ ID NO:35) (protein)
chain: B1 chain with Q51E, Q53E, Q55E
pore opening/closing dynamics (automated flare quantification) (Hela cells): significantly reduced pore opening/closing dynamics; also recorded: significant changes in pore activity

B5: m5: PhoDer mutant R42Q/K43Q/K51Q/R53Q/K55Q (SEQ ID NO:38) (protein)
chain: B1 chain with R42Q, K43Q
pore opening/closing dynamics (automated flare quantification) (Hela cells): significantly reduced pore opening/closing dynamics; also recorded: significant changes in pore activity

B6: m3: PhoDer mutant R42Q/K43Q (SEQ ID NO:36) (protein)
chain: B1 chain with R42Q, K43Q, Q51K, Q53R, Q55K
pore opening/closing dynamics (automated flare quantification) (Hela cells): significantly reduced pore opening/closing dynamics; also recorded: significant changes in pore activity
